According to ChEMBL document CHEMBL6083284, “Identification of TAK-756, A Potent TAK1 Inhibitor for the Treatment of Osteoarthritis through Intra-Articular Administration” (J Med Chem, 2024):
Values after ≈ are worked out from the molar mass of the structure shown.

Assays:
[1] = Inhibition of MMP3 production in human C20/A4 cells by Nano-Glo HiBit assay; conditions: C20/A4, read-out: pEC50 (converted)
[2] = Inhibition of IL-6 production in human SW982 cells by Nano-Glo HiBit assay; conditions: SW982, read-out: pEC50 (converted)
[3] = Partition coefficient, logP of compound in octanol/water; assay type: physicochemical
[4] = Thermodynamic solubility in simulated synovial fluid containing PBS/BSA incubated for 20 hrs by HPLC-HRMS analysis; assay type: physicochemical; conditions: read-out: Therm_solubility
[5] = Drug concentration in synovial fluid of Sprague-Dawley rat at 250 ug, IART measured for 168 hrs by LC-MS/MS analysis; assay type: ADME, tissue-based; conditions: for concentration at 168 h: Sprague-Dawley, synovial fluid, 250 ug, read-out: Ct
[6] = Protein binding in bovine synovial fluid assessed as unbound fraction at 5 uM incubated for 4 hrs by rapid equilibrium dialysis; assay type: ADME, tissue-based, Bos taurus; conditions: cattle
[7] = Free drug concentration in synovial fluid of Sprague-Dawley rat at 250 ug, IART measured for 168 hrs by LC-MS/MS analysis; assay type: ADME, tissue-based; conditions: in vivo, other, dose 250 µg
[8] = Terminal half life in plasma of Sprague-Dawley rat at 250 ug, IART measured for 168 hrs by LC-MS/MS analysis; assay type: ADME, cell-free; conditions: dose 250 µg, read-out: beta t1/2 (converted)
[9] = molecular target: T1, Interleukin-1 receptor-associated kinase 4 (Homo sapiens) (UniProt Q9NWZ3); experiment: Inhibition of IRAK4 (unknown origin) at 1 uM relative to control
T1 sequence (whole entry): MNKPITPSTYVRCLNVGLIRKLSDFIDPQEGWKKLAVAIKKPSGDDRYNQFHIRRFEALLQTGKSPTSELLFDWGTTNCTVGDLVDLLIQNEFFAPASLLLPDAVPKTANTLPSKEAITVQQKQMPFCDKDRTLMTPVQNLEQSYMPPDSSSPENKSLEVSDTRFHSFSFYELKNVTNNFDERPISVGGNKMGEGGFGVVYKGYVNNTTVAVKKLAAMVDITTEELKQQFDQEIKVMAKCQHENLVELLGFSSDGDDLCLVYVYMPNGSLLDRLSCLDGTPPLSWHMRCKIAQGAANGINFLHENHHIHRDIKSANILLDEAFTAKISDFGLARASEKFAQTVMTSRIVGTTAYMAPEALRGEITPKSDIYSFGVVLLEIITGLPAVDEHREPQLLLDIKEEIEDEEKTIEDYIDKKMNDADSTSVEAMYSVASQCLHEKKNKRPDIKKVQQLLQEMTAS

[10] = molecular target: Interleukin-1 receptor-associated kinase 1 (Homo sapiens) (UniProt P51617); experiment: Inhibition of IRAK1 (unknown origin) at 1 uM relative to control
[11] = molecular target: TRAF2 and NCK-interacting protein kinase (Homo sapiens) (UniProt Q9UKE5); experiment: Inhibition of TNIK (unknown origin) at 1 uM relative to control
[12] = molecular target: Misshapen-like kinase 1 (Homo sapiens) (UniProt Q8N4C8); experiment: Inhibition of MINK1 (unknown origin) at 1 uM relative to control
[13] = Drug concentration in tibia of Sprague-Dawley rat assessed as accumulation in tibial plateau at 250 ug, IART measured for 168 hrs by LC-MS/MS analysis; assay type: ADME, tissue-based; conditions: dose 250 µg, read-out: Drug uptake
[14] = Drug concentration in tibia of Sprague-Dawley rat assessed as accumulation in synovial membrane of tibial plateau at 250 ug, IART measured for 168 hrs by LC-MS/MS analysis; assay type: ADME; conditions: dose 250 µg, read-out: Ct
[15] = molecular target: Receptor-type tyrosine-protein kinase FLT3 (Homo sapiens) (UniProt P36888); experiment: Inhibition of FLT3 (unknown origin) at 1 uM relative to control
[16] = molecular target: Mitogen-activated protein kinase kinase kinase kinase 4 (Homo sapiens) (UniProt O95819); experiment: Inhibition of MAP4K4 (unknown origin) at 1 uM relative to control
[17] = molecular target: Dual specificity protein kinase CLK4 (Homo sapiens) (UniProt Q9HAZ1); experiment: Inhibition of CLK4 (unknown origin) at 1 uM relative to control
[18] = Drug uptake in synovial fluid of Lewis/Or1Rj naive rat model of joint inflammation administered intra-articularly pretreated with compound 72 hrs prior to LPS/MSU treatment measured after 4 hrs; assay type: ADME; conditions: in vivo, other, 76 h, route iart, dose < 240 µg
[19] = Drug concentration in Lewis/Or1Rj naive rat model of joint inflammation at >60 ug, IART pretreated with compound 72 hrs prior to LPS/MSU treatment measured after 4 hrs; assay type: ADME; conditions: in vivo, dose > 60 µg, read-out: Ct
[20] = Unbound drug concentration in Lewis/Or1Rj naive rat model of joint inflammation at >60 ug, IART pretreated with compound 72 hrs prior to LPS/MSU treatment measured after 4 hrs; assay type: ADME; conditions: in vivo, other, 76 h, dose > 60 µg
Rattus norvegicus [21] = experiment: Downregulation of Cxcl1 mRNA level in meniscus of Lewis/Or1Rj naive rat model of joint inflammation administered intra-articularly pretreated with compound 72 hrs prior to LPS/MSU treatment measured after 4 hrs by qPCR analysis; assay type: functional, organism-based; conditions: dose <= 240.0 µg, route iart, time 76.0 hrs
Rattus norvegicus [22] = experiment: Downregulation of Il6 mRNA level in meniscus of Lewis/Or1Rj naive rat model of joint inflammation administered intra-articularly pretreated with compound 72 hrs prior to LPS/MSU treatment measured after 4 hrs by qPCR analysis; assay type: functional, organism-based; conditions: dose <= 240.0 µg, route iart, time 76.0 hrs
Rattus norvegicus [23] = species: Rattus norvegicus; experiment: Effect on Mmp3 mRNA level in meniscus of Lewis/Or1Rj naive rat model of joint inflammation >=30 ug, IART pretreated with compound 72 hrs prior to LPS/MSU treatment measured after 4 hrs by qPCR analysis; assay type: functional, organism-based; conditions: dose >= 30.0 µg, time 76.0 hrs
[24] = system: Mitogen-activated protein kinase kinase kinase 7 (TAK1, Rattus norvegicus); experiment: In vivo inhibition of TAK1 in Lewis/Or1Rj naive rat model of joint inflammation assessed as reduction in CXCL1 level administered intra-articularly pretreated with compound 72 hrs prior to LPS/MSU treatment measured after 4 hrs; conditions: dose <= 240.0 µg, route iart, time 76.0 hrs
[25] = system: Mitogen-activated protein kinase kinase kinase 7 (TAK1, Rattus norvegicus); experiment: In vivo inhibition of TAK1 in Lewis/Or1Rj naive rat model of joint inflammation assessed as reduction in CXCL1 level at 15 ug, IART pretreated with compound 72 hrs prior to LPS/MSU treatment measured after 4 hrs relative to control; conditions: dose 15.0 µg, time 76.0 hrs
[26] = Toxicity in Sprague-Dawley rat assessed as drug tolerance at 50 ug, IART measured for 168 hrs by LC-MS/MS analysis; conditions: in vivo, other, dose 50 µg
[27] = Drug concentration in plasma of Sprague-Dawley rat at 50 ug, IART measured for 168 hrs by LC-MS/MS analysis; assay type: ADME, cell-free; conditions: dose 50 µg
[28] = Drug concentration in plasma of Sprague-Dawley rat at 50 ug, IART measured after 24 hrs by LC-MS/MS analysis; assay type: ADME, cell-free; conditions: dose 50 µg
[29] = Drug uptake in tibia of Sprague-Dawley rat assessed as accumulation at synovial membrane of tibial plateau at 50 ug, IART measured for 168 hrs by LC-MS/MS analysis; assay type: ADME, tissue-based; conditions: in vivo, other, dose 50 µg
[30] = Drug uptake in synovial fluid of Sprague-Dawley rat at 50 ug, IART measured after 72 hrs by LC-MS/MS analysis; assay type: ADME, tissue-based; conditions: in vivo, other, dose 50 µg
[31] = Drug uptake in tibia of Sprague-Dawley rat assessed as accumulation at cartilage tissue of tibial plateau at 50 ug, IART measured for 168 hrs by LC-MS/MS analysis; assay type: ADME, tissue-based; conditions: in vivo, other, dose 50 µg
[32] = Solubility in simulated synovial fluid; assay type: physicochemical
[33] = Lipophilicity, logD of compound; assay type: physicochemical; conditions: octanol/water

Interleukin-1 receptor-associated kinase 1 (Homo sapiens), sequence (P51617 whole entry, looked up): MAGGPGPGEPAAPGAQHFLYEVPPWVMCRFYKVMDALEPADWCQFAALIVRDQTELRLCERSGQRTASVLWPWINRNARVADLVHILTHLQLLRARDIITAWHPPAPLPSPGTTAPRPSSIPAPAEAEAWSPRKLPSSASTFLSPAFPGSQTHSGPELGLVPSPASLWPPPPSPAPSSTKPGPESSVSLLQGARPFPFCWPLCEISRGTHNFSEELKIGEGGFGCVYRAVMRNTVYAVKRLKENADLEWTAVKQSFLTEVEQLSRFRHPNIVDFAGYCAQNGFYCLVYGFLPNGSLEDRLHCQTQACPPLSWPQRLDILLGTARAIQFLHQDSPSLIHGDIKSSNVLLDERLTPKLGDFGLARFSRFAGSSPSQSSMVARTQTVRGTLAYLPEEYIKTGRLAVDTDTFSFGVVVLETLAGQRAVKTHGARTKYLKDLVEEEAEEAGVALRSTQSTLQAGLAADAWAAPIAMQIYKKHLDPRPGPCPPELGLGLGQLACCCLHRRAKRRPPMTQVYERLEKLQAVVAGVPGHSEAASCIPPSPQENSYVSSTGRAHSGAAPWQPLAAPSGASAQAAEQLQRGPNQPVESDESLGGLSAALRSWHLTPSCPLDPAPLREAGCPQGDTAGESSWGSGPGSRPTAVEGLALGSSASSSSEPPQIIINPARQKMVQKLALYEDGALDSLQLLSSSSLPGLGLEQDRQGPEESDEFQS
Misshapen-like kinase 1 (Homo sapiens), sequence (Q8N4C8 whole entry, looked up): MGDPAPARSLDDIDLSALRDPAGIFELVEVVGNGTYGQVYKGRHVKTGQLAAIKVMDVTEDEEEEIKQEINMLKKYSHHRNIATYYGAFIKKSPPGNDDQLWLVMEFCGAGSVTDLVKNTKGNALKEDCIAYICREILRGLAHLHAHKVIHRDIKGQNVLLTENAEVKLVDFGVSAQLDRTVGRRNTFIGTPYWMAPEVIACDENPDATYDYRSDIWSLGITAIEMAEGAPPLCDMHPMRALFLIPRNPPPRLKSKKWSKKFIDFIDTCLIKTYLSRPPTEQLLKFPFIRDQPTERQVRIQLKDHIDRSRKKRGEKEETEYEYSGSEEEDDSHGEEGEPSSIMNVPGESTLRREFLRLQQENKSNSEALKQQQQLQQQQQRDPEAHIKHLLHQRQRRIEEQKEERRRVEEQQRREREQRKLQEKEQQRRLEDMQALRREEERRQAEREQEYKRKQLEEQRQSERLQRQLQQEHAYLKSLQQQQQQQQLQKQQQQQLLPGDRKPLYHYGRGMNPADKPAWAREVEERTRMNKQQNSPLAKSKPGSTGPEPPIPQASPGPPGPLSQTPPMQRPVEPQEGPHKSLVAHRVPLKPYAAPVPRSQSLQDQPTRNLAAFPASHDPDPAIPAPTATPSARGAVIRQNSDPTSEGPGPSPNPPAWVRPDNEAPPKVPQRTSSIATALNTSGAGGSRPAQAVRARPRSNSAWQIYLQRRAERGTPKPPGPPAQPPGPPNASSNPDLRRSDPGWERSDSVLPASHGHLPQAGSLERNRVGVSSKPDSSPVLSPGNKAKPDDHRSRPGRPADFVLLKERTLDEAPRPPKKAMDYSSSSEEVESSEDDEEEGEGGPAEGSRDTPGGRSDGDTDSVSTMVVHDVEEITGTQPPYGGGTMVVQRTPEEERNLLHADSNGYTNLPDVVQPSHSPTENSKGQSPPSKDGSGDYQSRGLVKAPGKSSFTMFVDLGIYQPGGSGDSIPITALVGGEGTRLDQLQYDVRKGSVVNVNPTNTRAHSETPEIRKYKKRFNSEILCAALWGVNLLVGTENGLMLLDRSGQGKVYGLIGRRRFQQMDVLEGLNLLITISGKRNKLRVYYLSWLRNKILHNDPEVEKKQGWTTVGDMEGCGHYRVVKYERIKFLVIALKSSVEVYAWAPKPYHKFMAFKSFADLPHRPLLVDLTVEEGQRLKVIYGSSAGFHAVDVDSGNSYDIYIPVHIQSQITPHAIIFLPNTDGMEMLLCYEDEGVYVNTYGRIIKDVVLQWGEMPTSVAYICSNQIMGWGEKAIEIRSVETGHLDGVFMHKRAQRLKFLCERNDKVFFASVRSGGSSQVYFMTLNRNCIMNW
TRAF2 and NCK-interacting protein kinase (Homo sapiens), sequence (Q9UKE5 whole entry, looked up): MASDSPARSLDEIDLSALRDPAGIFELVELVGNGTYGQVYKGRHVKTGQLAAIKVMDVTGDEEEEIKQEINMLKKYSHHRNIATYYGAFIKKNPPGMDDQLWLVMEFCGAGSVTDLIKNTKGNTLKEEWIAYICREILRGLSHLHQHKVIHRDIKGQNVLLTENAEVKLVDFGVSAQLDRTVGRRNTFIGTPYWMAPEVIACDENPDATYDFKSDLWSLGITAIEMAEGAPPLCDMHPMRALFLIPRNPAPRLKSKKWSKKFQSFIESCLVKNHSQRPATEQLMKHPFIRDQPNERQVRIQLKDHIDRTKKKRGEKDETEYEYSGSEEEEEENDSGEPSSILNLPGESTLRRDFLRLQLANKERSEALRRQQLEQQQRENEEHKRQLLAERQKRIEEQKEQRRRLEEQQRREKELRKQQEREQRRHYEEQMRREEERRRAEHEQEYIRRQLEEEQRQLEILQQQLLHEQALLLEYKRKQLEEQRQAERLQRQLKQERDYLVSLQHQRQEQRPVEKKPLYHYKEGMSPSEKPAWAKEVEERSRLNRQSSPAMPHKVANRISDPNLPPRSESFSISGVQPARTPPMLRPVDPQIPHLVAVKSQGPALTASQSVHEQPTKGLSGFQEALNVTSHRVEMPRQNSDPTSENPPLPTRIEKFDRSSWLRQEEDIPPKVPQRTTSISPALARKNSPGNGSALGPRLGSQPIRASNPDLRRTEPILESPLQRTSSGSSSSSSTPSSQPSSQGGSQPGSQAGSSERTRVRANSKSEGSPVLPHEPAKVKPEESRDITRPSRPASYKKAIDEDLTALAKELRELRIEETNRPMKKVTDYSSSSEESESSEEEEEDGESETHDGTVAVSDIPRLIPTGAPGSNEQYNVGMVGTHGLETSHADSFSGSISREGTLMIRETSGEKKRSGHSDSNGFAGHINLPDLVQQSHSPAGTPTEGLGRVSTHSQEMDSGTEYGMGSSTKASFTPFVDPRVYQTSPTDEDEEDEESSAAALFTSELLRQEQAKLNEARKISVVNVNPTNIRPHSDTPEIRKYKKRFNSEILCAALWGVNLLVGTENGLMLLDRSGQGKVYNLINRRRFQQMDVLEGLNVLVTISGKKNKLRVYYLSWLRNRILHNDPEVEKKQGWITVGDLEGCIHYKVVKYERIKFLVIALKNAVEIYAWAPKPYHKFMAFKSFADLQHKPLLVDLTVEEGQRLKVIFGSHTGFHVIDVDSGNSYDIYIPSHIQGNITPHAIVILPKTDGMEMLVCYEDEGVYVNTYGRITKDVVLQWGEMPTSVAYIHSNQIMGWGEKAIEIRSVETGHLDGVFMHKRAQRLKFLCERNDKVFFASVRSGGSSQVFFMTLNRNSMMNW
Receptor-type tyrosine-protein kinase FLT3 (Homo sapiens), sequence (P36888 whole entry): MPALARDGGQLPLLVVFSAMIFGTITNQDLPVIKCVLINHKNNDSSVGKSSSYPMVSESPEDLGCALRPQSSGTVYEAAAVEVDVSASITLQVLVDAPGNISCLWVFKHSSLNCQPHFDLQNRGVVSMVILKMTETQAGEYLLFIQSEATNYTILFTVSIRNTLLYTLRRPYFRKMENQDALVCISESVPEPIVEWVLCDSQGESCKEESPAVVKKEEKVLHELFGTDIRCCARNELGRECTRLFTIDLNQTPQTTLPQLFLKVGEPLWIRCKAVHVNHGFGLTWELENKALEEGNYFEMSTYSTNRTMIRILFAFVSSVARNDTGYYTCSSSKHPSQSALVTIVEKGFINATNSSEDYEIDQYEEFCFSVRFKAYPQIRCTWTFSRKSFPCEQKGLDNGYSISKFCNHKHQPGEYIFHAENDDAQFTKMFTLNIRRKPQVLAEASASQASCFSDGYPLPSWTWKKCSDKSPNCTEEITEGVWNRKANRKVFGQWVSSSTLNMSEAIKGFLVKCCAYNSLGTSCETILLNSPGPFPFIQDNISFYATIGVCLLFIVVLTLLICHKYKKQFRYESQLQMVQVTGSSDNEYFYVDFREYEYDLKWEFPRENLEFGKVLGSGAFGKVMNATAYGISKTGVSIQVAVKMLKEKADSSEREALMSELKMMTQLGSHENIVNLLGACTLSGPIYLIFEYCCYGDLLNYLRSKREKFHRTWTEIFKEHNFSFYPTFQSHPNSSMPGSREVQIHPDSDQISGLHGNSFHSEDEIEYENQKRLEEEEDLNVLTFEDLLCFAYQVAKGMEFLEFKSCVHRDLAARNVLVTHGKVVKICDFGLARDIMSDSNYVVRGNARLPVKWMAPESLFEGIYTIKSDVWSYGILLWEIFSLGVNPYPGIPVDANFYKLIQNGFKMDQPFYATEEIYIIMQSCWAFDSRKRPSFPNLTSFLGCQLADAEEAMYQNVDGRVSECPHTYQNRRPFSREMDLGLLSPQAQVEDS
Dual specificity protein kinase CLK4 (Homo sapiens), sequence (Q9HAZ1 whole entry, looked up): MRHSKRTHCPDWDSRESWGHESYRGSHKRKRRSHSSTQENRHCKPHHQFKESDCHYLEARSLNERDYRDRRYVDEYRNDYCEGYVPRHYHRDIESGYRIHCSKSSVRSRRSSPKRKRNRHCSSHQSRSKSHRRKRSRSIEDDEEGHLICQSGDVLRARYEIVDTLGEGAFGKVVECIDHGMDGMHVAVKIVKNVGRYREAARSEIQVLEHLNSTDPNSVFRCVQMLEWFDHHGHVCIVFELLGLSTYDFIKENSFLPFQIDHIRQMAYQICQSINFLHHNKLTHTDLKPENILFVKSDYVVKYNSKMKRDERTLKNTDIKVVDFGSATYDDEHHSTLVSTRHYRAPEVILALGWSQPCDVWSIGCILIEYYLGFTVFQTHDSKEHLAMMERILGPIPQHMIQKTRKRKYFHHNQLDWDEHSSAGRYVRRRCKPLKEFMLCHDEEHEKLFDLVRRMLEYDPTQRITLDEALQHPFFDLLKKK

EC50 [1] [nM]	EC50 [2] [nM]	logP [3]	solubility thermodynamic at 20 h [4] [µM]	concentration at 168 h [5] [nM]	fraction unbound at 4 h, 5 µM [6]	Drug uptake(free) [7]	half-life [8] [h]	SMILES	other results
63.1	158	3.6	15 (≈ 5.93 µg/mL)	120	0.088	11 nM	21	NC(=O)c1cccc(-c2cc(-c3ccc(N)nc3O[C@H]3CC[C@@H](O)CC3)on2)n1	–
200	251	2.8	12 (≈ 5.41 µg/mL)	–	–	–	–	CN(C)C(=O)c1ccc(-c2cc(-c3cccc(C(N)=O)c3)no2)c(O[C@H]2CC[C@@H](O)CC2)n1	–
501	1000	4	0.2 (≈ 0.0875 µg/mL)	–	–	Below_limit_of_detection	11	CC(=O)Nc1ccc(-c2cc(-c3cccc(C(N)=O)n3)no2)c(O[C@H]2CC[C@@H](O)CC2)n1	Ct ([5]; in vivo, other, 168 h, dose 250 µg): Below_limit_of_detection
126	100	3	2 (≈ 0.961 µg/mL)	1210	0.27	326 nM	80	CN(C)C(=O)CNc1ccc(-c2cc(-c3cccc(C(N)=O)n3)no2)c(O[C@H]2CC[C@@H](O)CC2)n1	–
126	79.4	3	2.9 (≈ 1.31 µg/mL)	–	–	–	–	CN(C)C(=O)c1ccc(-c2cc(-c3cccc(C(N)=O)n3)no2)c(O[C@H]2CC[C@@H](O)CC2)n1	–

More lines, now with the values behind:

SMILES	EC50 [1] [nM]	EC50 [2] [nM]	logP [3]	solubility thermodynamic at 20 h [4] [µM]	concentration at 168 h [5] [nM]	fraction unbound at 4 h, 5 µM [6]	Drug uptake(free) [7]	half-life [8] [h]	other results
NC(=O)c1cccc(-c2cc(-c3ccc(NCC(=O)N4CCS(=O)(=O)CC4)nc3O[C@H]3CC[C@@H](O)CC3)on2)n1	251	631	2.4	0.13 (≈ 0.0742 µg/mL)	489	0.452	221 nM	–	–
CN1Cc2cc(-c3cc(-c4cccc(C(N)=O)c4)no3)c(O[C@H]3CC[C@@H](O)CC3)cc2C1=O	79.4	79.4	3.3	1.8 (≈ 0.805 µg/mL)	9810	0.158	1550 nM	93	inhibition [9]: 77%; inhibition [10]: 15%; inhibition [11]: 86%; inhibition [12]: 88%; concentration at 168 h [13]: 42000 nM; concentration at 168 h [14]: 631000 nM; inhibition [15]: 97%; inhibition [16]: 100%; inhibition [17]: 88%; Drug uptake [18]: Dose-dependent-effect; concentration at 76 h [19]: ≥ 1000 nM; Drug uptake(free) [20]: 100 nM; Activity (Rattus norvegicus [21]): Dose-dependent-effect; Activity (Rattus norvegicus [22]): Dose-dependent-effect; Activity (Rattus norvegicus [23]): Not active; Less Profound Effect Observed; inhibition [24]: Dose-dependent-effect; inhibition [25]: > 90%
CNC(=O)CNc1ccc(-c2cc(-c3cccc(C(N)=O)n3)no2)c(O[C@H]2CC[C@@H](O)CC2)n1	50.1	631	2.8	2.2 (≈ 1.03 µg/mL)	–	–	–	–	–
NC(=O)c1cccc(-c2cc(-c3cccnc3O[C@H]3CC[C@@H](O)CC3)on2)n1	158	251	3.8	4.5 (≈ 1.71 µg/mL)	14	0.056	< 1 nM	7	Activity [26]: Non-toxic; concentration at 168 h [27]: < 100 nM; concentration at 24 h [28]: 1 nM; Drug uptake [29]: Active; Drug uptake [30]: Active; Drug uptake [31]: Active
CC(C)CC(=O)Nc1cncc(-c2ccc3[nH]nc(-c4nc5c(-c6cccc(F)c6)cncc5[nH]4)c3c2)c1 [LORECIVIVINT]	–	–	–	–	–	–	–	–	solubility [32]: 0.8 µM (≈ 0.404 µg/mL); logD [33]: > 4.7
COc1ccc(-c2cc(-c3cccc(C(N)=O)n3)no2)c(O[C@H]2CC[C@@H](O)CC2)n1	126	1000	4.5	–	–	–	–	–	–
CN(C)C(=O)c1ccc(-c2cc(-c3cccc(C(N)=O)c3)no2)c(O[C@H]2CC[C@@H](O)CC2)c1	158	126	2.8	10 (≈ 4.5 µg/mL)	–	–	–	–	–
CNc1ccc(-c2cc(-c3cccc(C(N)=O)n3)no2)c(O[C@H]2CC[C@@H](O)CC2)n1	63.1	126	> 4.7	1 (≈ 0.409 µg/mL)	1840	0.019	35 nM	168	–
